# Experimental data: article PMC6530925 (Nature metabolism, 2019)
# Biological target: T1, Slc12a8 (Mus musculus, UniProt Q8VI23)
# T1 sequence (Q8VI23 1-705): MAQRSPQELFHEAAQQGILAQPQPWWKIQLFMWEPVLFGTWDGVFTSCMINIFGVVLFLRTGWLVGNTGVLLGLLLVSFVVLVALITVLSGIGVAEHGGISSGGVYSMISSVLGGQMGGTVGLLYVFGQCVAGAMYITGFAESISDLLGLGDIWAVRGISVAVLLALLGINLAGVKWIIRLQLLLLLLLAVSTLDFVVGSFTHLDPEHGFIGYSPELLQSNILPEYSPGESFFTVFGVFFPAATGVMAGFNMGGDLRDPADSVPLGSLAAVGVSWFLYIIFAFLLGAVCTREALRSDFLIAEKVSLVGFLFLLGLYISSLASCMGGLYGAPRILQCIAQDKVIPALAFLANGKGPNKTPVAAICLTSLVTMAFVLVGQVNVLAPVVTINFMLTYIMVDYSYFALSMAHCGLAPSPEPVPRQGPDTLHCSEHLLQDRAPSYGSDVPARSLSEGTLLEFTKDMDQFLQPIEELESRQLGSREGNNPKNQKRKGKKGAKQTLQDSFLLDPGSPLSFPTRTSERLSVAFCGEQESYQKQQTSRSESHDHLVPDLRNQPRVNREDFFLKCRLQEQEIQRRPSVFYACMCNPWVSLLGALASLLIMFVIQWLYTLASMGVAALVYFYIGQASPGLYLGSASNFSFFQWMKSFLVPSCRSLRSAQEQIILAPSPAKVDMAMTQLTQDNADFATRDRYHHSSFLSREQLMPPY
# Assay: 3H-NMN uptake into Slc12a8-OE proteoliposomes with cold NMN competition
# Type: biochemical
compound,measurement,value
"NC(=O)c1ccc[n+]([C@@H]2O[C@H](COP(=O)([O-])O)[C@@H](O)[C@H]2O)c1 [NMN, Nicotinamide mononucleotide]",IC50,22.8 ± 3.6 µM
